Laboratory results as given in patent US20150045410A1, “METHOD OF REGULATING CFTR EXPRESSION AND PROCESSING” (University of Iowa Research Foundation, priority 2012, published 2015).

Key:
SIN3A 3′UTR = test: Dual-luciferase reporter assay (psiCHECK-2 vector with SIN3A 3′UTR) in HEK293T cells; assay type: cell-based; conditions: HEK293T cells co-transfected with psiCHECK-2 and increasing concentrations of mimic; vs Scr
Text: FIG. 5: miR-138 regulates SIN3A in a dose-dependent and site-specific manner. HEK293T cells were co-transfected with the psiCHECK-2 vector (containing the SIN3A 3′UTR) and increasing concentrations of Scr or miR-138 mimic (Scr: non-targeting control oligonucleotide). To test site-specificity, the two predicted binding sites of miR-138 on SIN3A 3′UTR cloned in the psiCHECK-2 vector were mutated and the experiment repeated. Error bars indicate mean±SE; (n=4, 3 replicates each); *P<0.01, relative to Scr.
The 3′UTR of SIN3A was cloned into the Xho1/Not1 restriction enzyme sites in the 3′UTR of Renilla luciferase in the psiCHECK™-2 vector (Promega). HEK293T cells were cotransfected with 20 ng of psiCHECK-2 vector and different concentrations of miR-138 mimic. The Lipofectamine™ RNAiMAX (Invitrogen) reverse transfection protocol was used as described above. The miR-138 binding sites on the SIN3A 3′UTR were mutated using the site-directed, ligase-independent mutagenesis (SLIM) protocol (Chiu, J., Tillett, D., Dawes, I. W. & March, P. E. Site-directed, Ligase-Independent Mutagenesis (SLIM) for highly efficient mutagenesis of plasmids greater than 8 kb. J Microbiol. Methods 73, 195-198 (2008); Chiu, J., March, P. E., Lee, R. & Tillett, D. Site-directed, Ligase-Independent Mutagenesis (SLIM): a single-tube methodology approaching 100% efficiency in 4 h. Nucleic Acids Res. 32, (2004)). […]

SIN3A = SIN3A mRNA (RT-qPCR) and protein (immunoblot) in primary human airway epithelia; assay type: cell-based; conditions: polarized primary human airway epithelia; mRNA 24 hrs, protein 72 hrs post-transfection
Protocol: Airway epithelia from human trachea and primary bronchus removed from organs donated for research were cultured at the air-liquid interface (ALI) (Karp, P. H. et al. An in vitro model of differentiated human airway epithelia. Methods for establishing primary cultures. Methods Mol. Biol. 188, 115-137 (2002)). These studies were approved by the Institutional Review Board of the University of Iowa. Briefly, airway epithelial cells were dissociated from native tissue by pronase enzyme digestion. Permeable membrane inserts (0.6 cm^2 Millipore-PCF, 0.33 cm^2 Costar-Polyester) pre-coated with human placental collagen (IV, Sigma) were seeded with freshly dissociated epithelia. […]
First-strand cDNA was synthesized using SuperScript® II (Invitrogen), and oligo-dT and random-hexamer primers. […] To quantitate miRNAs, TaqMan® microRNA Assays (Applied Biosystems) were obtained for miR-138, RNU48 (control) and 8 other miRNAs (negative control, miRs-21, -24, -26a, -200c, -146a, -146b, -27a*, -134). […] All experiments were performed in quadruplicate. mRNA and miRNA quantification in cell lines represents 8 independent transfections in 4 separate experiments. mRNA quantification in human primary airway epithelial cultures represent 8 independent transfections in 8 non-CF donors and 4 CF donors. […]

“miR-138 mimic: synthetic modified RNA duplex, sense SEQ ID NO: 4, antisense SEQ ID NO: 5, showing miR-138-like activity” was tested, and the “SIN3A expression (Renilla luciferase with SIN3A 3′UTR, normalized to firefly luciferase)” value (SIN3A 3′UTR) was “repressed SIN3A expression in a dose-dependent manner” and the “SIN3A mRNA and protein levels” value (SIN3A) was “reduced”.
